The term EC50 denotes the concentration at which the effect is half-maximal. By AC50 is commonly meant the midpoint of the concentration-response curve, whichever way the signal moves. The term IC50 denotes the midpoint of a concentration-inhibition curve.

For four compounds, EC50, AC50 and IC50 results are on record in ChEMBL document CHEMBL1201862, “PubChem BioAssay data set” (2004).

Active and inactive are the calls of the source.

One assay deals with Streptococcus. Kind of assay: GAS UMAA2166 growth inhibition – luminescence, BacTiterGlo, counter-screen for streptokinase expression inhibitor project, dose response (AID 1915).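 Further: potency for reduction of bacterial viability or growth.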 Format: functional, organism-based.
A further assay relates to HepG2. Kind of assay: viability loss in HepG2 hepatoma cells – cell-based, cherry-picks, set 2, cytotoxicity control, dose response (AID 687002). Format: functional. As to conditions: Homo sapiens.
For another assay, the target named is T1, Bcl-2-like protein 10 (Homo sapiens, UniProt Q9HD36).
T1 sequence (Q9HD36 whole entry): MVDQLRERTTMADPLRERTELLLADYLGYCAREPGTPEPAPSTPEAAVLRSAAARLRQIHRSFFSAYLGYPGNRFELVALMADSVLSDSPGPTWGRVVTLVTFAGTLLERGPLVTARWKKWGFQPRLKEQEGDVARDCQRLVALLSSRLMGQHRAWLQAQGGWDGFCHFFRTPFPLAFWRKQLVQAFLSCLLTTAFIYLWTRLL
The experiment in a line: Bcl-B/TR3 peptide binding disruption – biochemical, fluorescence polarization, FITC-TR3 peptide, selectivity assay for Bfl-1 inhibitor project, primary screen (AID 748).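 Further: fluorescence polarization from a fluorescein-labelled TR3 peptide binding purified Bcl-B.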 For orientation: In fluorescence polarisation assays a small probe gives low polarisation when free and higher when bound to something large.

The next assay has as its target T2, Caspase-3 (Homo sapiens, UniProt P42574).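 Further: Dose-response selectivity test against caspase-3 for candidate inhibitors of sentrin-specific proteases (SENPs).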
T2 sequence (P42574 whole entry): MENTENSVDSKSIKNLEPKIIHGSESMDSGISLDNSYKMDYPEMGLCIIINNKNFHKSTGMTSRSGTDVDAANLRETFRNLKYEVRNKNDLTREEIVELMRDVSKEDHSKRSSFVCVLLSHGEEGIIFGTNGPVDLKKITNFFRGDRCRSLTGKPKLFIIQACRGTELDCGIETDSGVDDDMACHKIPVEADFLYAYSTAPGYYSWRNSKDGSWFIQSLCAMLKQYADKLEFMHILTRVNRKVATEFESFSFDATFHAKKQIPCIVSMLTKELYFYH
Format: functional.

In assay [1] the target is T3, Sentrin-specific protease 7 (Homo sapiens, UniProt Q9BQF6).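 Further: Luminescence-based dose-response confirmation of ultra-high-throughput screening hits, measuring inhibition of SENP7.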
T3 sequence (Q9BQF6 whole entry): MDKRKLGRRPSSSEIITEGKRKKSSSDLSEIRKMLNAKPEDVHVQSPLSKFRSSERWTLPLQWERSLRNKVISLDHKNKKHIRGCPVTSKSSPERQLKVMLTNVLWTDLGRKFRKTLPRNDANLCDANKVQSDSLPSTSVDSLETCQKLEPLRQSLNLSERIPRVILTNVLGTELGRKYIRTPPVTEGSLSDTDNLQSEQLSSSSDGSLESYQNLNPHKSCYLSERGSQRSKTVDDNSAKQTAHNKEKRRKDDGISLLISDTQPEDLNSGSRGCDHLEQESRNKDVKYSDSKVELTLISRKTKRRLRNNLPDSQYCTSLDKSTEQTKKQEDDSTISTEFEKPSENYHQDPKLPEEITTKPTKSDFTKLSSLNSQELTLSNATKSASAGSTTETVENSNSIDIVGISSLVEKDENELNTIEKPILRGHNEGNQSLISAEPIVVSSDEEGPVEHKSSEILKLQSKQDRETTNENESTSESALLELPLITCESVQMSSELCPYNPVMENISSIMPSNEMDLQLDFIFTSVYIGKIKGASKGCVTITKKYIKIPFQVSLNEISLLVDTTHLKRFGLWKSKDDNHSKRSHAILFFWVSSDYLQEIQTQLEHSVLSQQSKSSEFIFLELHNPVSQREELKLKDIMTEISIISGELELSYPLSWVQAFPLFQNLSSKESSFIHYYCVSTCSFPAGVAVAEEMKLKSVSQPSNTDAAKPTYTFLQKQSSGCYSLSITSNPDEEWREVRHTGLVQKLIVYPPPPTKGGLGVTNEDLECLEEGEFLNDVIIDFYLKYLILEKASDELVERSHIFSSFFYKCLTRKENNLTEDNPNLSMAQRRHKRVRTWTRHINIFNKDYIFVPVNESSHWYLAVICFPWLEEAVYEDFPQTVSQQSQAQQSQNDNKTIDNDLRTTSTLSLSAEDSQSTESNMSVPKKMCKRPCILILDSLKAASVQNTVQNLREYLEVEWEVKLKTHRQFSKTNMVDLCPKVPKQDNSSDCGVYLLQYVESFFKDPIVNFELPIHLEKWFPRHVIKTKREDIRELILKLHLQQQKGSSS
Type of assay: functional.

Assay [2] has as its target T4, Sentrin-specific protease 6 (Homo sapiens, UniProt Q9GZR1).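 Further: Luminescence-based dose-response confirmatory assay of SENP6 inhibition, following up an ultra-high-throughput screen.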
T4 sequence (Q9GZR1 whole entry): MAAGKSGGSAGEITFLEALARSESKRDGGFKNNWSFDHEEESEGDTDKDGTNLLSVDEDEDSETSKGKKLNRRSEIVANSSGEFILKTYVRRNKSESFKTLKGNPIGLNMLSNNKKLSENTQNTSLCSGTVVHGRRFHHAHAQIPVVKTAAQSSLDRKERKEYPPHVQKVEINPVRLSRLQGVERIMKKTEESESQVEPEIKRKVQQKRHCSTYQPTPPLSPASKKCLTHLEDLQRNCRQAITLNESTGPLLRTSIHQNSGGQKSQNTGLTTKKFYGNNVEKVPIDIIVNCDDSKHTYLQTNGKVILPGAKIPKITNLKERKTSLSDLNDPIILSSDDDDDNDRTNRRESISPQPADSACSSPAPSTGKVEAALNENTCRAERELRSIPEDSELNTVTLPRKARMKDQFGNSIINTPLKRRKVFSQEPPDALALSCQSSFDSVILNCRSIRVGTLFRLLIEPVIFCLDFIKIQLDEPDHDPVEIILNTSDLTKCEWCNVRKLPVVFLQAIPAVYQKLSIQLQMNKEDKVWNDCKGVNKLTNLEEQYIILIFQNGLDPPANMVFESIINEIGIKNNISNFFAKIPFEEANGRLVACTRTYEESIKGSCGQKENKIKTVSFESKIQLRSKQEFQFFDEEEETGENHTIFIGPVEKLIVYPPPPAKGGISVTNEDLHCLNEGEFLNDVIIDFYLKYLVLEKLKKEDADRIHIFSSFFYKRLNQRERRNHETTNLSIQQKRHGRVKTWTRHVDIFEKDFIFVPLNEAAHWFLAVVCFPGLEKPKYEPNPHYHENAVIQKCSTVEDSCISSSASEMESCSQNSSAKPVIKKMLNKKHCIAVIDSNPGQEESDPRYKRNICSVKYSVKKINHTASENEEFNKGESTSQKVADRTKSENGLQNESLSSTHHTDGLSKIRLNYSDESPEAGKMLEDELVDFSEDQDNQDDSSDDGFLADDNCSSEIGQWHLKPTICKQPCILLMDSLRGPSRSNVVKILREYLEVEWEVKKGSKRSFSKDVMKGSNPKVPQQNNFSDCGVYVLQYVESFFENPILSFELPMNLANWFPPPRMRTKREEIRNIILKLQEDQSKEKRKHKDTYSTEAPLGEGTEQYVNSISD
Format: functional.

As to `CCCCCCCCCCOC(=O)Cn1c(COc2ccccc2)[n+](C)c2ccccc21`, the EC50 with Streptococcus was 7.89 µM (active).

Consider `CCOC(=O)c1c(-c2ccc(-c3ccccc3)cc2)csc1NC(=O)CNCCN(C)C`, for which, in the assay with HepG2, the concentration at half-maximal activity (AC50) is 18.4 µM (active).

On to `COc1cc(-c2nnc(SCc3cc(=O)oc4cc(O)c(O)cc34)o2)cc(OC)c1OC`, for which the concentration for half-maximal inhibition (IC50) at Bcl-2-like protein 10 is 0.493 µM (active).

For the compound `N#Cc1c(NC(=O)c2ccc(Br)o2)n(-c2ccccc2)c2nc3ccccc3nc12`, the half-maximal inhibitory concentration (IC50) at Caspase-3 is 29.6 µM (active); in assay [1], 3.69 µM (active); in assay [2], 2.03 µM (active).
